Assays:
U-87 MG = experiment: Antiproliferative activity against human U87MG cells assessed as reduction in cell viability measured after 72 hrs by MTT assay
[1] = target: T1, Amine oxidase [flavin-containing] A (Homo sapiens, UniProt P21397); experiment: Inhibition of human recombinant MAO-A expressed in baculovirus infected BTI cells using luciferin derived luminogenic substrate measured after 20 mins by luminescence assay
T1 sequence (P21397 whole entry): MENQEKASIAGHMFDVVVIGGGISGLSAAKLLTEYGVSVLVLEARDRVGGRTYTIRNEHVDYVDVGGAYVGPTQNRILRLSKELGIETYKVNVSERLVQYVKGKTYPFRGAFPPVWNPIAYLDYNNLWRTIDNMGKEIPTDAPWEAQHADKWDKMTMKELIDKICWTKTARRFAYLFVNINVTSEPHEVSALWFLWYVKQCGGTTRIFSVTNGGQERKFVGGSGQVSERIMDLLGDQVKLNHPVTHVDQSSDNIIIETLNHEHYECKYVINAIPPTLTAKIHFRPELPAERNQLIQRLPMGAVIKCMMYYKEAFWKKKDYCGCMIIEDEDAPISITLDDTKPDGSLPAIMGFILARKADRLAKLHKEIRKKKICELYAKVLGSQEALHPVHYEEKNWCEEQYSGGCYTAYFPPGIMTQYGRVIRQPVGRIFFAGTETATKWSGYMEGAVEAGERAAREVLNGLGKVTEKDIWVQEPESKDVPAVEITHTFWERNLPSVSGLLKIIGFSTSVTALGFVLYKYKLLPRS

A549 = experiment: Antiproliferative activity against human A549 cells overexpressing LSD1 assessed as reduction in cell viability measured after 72 hrs by MTT assay; settings: A549, 72 h
[2] = target: T2, Amine oxidase [flavin-containing] B (Homo sapiens, UniProt P27338); experiment: Inhibition of human recombinant MAO-B expressed in baculovirus infected BTI cells using luciferin derived luminogenic substrate measured after 20 mins by luminescence assay
T2 sequence (P27338 whole entry): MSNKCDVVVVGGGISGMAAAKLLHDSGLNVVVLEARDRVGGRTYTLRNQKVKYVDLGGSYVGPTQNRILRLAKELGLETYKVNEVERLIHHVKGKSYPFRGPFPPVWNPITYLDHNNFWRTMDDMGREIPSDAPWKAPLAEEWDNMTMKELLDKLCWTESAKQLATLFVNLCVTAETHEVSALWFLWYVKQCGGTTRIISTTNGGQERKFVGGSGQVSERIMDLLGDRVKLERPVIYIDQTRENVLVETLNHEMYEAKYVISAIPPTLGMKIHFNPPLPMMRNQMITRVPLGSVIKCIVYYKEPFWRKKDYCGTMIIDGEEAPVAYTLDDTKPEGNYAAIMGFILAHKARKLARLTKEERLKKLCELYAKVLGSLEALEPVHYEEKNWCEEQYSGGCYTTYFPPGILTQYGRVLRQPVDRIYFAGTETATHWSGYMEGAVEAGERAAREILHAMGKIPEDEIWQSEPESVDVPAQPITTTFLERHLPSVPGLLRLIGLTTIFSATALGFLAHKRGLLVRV

[3] = target: Lysine-specific histone demethylase 1A (Homo sapiens, UniProt O60341); experiment: Inhibition of human recombinant LSD1 using fluorogenic ADHP as substrate preincubated for 30 mins followed by substrate addition measured after 10 mins by fluorescence assay

Structure (SMILES): O=C(/C=C/c1ccc(O)cc1)Nc1cccc(OCC2CCNCC2)c1
- IC50 (U-87 MG): > 50 µM
- IC50 [1]: > 50 µM
- IC50 (A549): 9.33 µM
- IC50 [2]: > 50 µM

Structure (SMILES): Cc1ccc(-c2cc(/C=C/C(=O)Nc3cccc(OCC4CCNCC4)c3)ccc2O)cc1
- IC50 [3]: > 50 µM

Structure (SMILES): O=C(/C=C/c1cccc(C(F)(F)F)c1)Nc1cccc(OCC2CCNCC2)c1
- IC50 [3]: > 50 µM

Structure (SMILES): O=C(/C=C/c1ccc(F)cc1)Nc1cccc(OCC2CCNCC2)c1
- IC50 [3]: > 50 µM

Structure (SMILES): COc1cc(/C=C/C(=O)Nc2ccc(CC(=O)NN)cc2)ccc1O
- IC50 (U-87 MG): 49.3 µM
- IC50 (A549): 30.3 µM

Structure (SMILES): COc1cc(/C=C/C(=O)Nc2cccc(COc3ccc(OC4CCNCC4)cc3)c2)ccc1O
- IC50 (U-87 MG): > 50 µM
- IC50 (A549): 28.5 µM

Structure (SMILES): COc1cc(/C=C/C(=O)Nc2cccc(OCC3CCNCC3)c2)cc(OC)c1OC
- IC50 [3]: > 50 µM

Structure (SMILES): COc1cc(/C=C/C(=O)Nc2ccccc2COc2ccc(OC3CCNCC3)cc2)ccc1O
- IC50 (U-87 MG): 14.2 µM
- IC50 [1]: > 50 µM
- IC50 (A549): 4.42 µM
- IC50 [2]: > 50 µM

Structure (SMILES): COc1cc(/C=C/C(=O)CC(=O)/C=C/c2ccc(O)c(OC)c2)ccc1O [CURCUMIN]
- IC50 [3]: 9.6 µM

Structure (SMILES): COC(=O)Cc1ccc(NC(=O)/C=C/c2ccc(OC(C)=O)c(OC)c2)cc1
- IC50 [3]: > 50 µM

Structure (SMILES): COc1cc(/C=C/C(=O)Nc2ccc(N)cc2)ccc1O
- IC50 (U-87 MG): > 50 µM
- IC50 (A549): > 50 µM

Structure (SMILES): COc1cc(/C=C/C(=O)Nc2cccc(OCC3CCNCC3)c2)ccc1O
- IC50 (U-87 MG): 31 µM
- IC50 (A549): 24.5 µM

Structure (SMILES): COc1ccc(/C=C/C(=O)Nc2cccc(OCC3CCNCC3)c2)cc1OC
- IC50 [3]: > 50 µM

Structure (SMILES): COc1cc(/C=C/C(=O)Nc2ccc(NC(=N)N)cc2)ccc1O
- IC50 (U-87 MG): > 50 µM
- IC50 (A549): > 50 µM

Structure (SMILES): COc1cc(/C=C/C(=O)Nc2ccc(C(=O)NO)cc2)ccc1O
- IC50 (U-87 MG): > 50 µM
- IC50 (A549): 32.5 µM

Structure (SMILES): N#Cc1ccc(/C=C/C(=O)Nc2cccc(OCC3CCNCC3)c2)cc1
- IC50 [3]: > 50 µM
